Data published in patent publication US20240166646A1, “1H-PYRROLO[2,3-B]PYRIDINE DERIVATIVES AS BCL-2 INHIBITORS FOR THE TREATMENT OF NEOPLASTIC AND AUTOIMMUNE DISEASES” (Newave Pharmaceutical Inc., priority 2020, published 2024).
Counter-ions that a name gives are not always drawn.

Experiments:
Bcl-2 = Bcl-2 (Homo sapiens (Human), UniProt P10415); experiment: Bcl-2 competition binding (fluorescence polarization) assay; settings: fluorescein labeled BH3 peptide 15 nM, Bcl-2 protein 30 nM, 3 hours of incubation at room temperature
In short: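 Fluorescence polarization competition of 15 nM labeled 23-mer BH3 peptide with 30 nM purified Bcl-2, in 20 mM Hepes pH 7.0, 50 mM KCl, 5 mM MgCl2, 20 mM Na2MoO4, 0.1 mg/ml bovine gamma globulin, 0.01% NP40. Compounds 20 μM to 2 nM final; mP read after 3 h at room temperature, background-subtracted. IC50 from sigmoidal dose-response fit.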

[1] = test system: BCL-2-dependent acute lymphoblastic leukemia (ALL) cell line RS4; 11 with G101V mutation; experiment: In vitro anti-proliferation assay (ATPlite) in RS4; 11 with G101V mutation; type: cell-based; settings: about 72 hours incubation, medium with 5% FBS or 10% normal human serum, ATPlite luminescence
Description: Cell antiproliferation was assayed by PerkinElmer ATPlite™ Luminescence Assay System. Briefly, the various test cancer cell lines were plated at a density of about 1×10^4 cells per well in Costar 96-well plates, and were incubated with different concentrations of compounds for about 72 hours in medium supplemented with 5% FBS or 10% normal human serum (NHS). One lyophilized substrate solution vial was then reconstituted by adding 5 mL of substrate buffer solution, and was agitated gently until the solution was homogeneous. About 50 μL of mammalian cell lysis solution was added to 100 μL of cell suspension per well of a microplate, and the plate was shaken for about five minutes in an orbital shaker at ˜700 rpm. This procedure was used to lyse the cells and to stabilize the ATP. Next, 50 μL substrate solution was added to the wells and microplate was shaken for five minutes in an orbital shaker at ˜700 rpm. Finally, the luminescence was measured by a PerkinElmer TopCount® Microplate Scintillation Counter. Such assays, carried out with a range of doses of test compounds, allowed the determination of the cellular anti-antiproliferative IC50 of the compounds of the present invention.

Bcl-2, sequence (P10415 whole entry): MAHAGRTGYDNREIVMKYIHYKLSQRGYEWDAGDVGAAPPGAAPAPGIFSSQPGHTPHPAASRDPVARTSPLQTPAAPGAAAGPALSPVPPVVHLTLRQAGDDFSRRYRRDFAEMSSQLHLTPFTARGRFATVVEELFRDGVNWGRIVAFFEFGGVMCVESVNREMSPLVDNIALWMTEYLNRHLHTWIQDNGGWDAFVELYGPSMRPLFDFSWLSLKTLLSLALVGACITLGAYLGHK

SMILES	IC50 (Bcl-2)	IC50 ([1]; RS4-11)	IC50 [1]	IC50 (Bcl-2; hydrochloride)	IC50 ([1]; hydrochloride)
CC(C)Oc1ccccc1[C@@H]1CCCN1C1CC2(CCN(c3ccc(C(=O)NS(=O)(=O)c4ccc(NCC5CCOCC5)c([N+](=O)[O-])c4)c(N4c5cc6cc[nH]c6nc5O[C@H]5COC[C@H]54)c3)CC2)C1 [Example 54, 4-(2-((S)-2-(2-isopropoxyphenyl)pyrrolidin-1-yl)-7-azaspiro[3.5]nonan-7-yl)-N-((3-nitro-4-(((tetrahydro-2H-pyran-4-yl)methyl)amino)phenyl)sulfonyl)-2-((5aR,8aR)-5a,6,8,8a-tetrahydrofuro[3,4-b]pyrrolo[3′,2′:5,6]pyrido[3,2-e][1,4]oxazin-5(1H)-yl)benzamide]	0.586 nM	> 1000 nM			
CC(C)Oc1ccccc1[C@@H]1CCCN1C1CC2(CCN(c3ccc(C(=O)NS(=O)(=O)c4ccc(NCC5CCOCC5)c([N+](=O)[O-])c4)c(N4c5cc6cc[nH]c6nc5O[C@@H]5COC[C@@H]54)c3)CC2)C1 [Example 55, 4-(2-((S)-2-(2-isopropoxyphenyl)pyrrolidin-1-yl)-7-azaspiro[3.5]nonan-7-yl)-N-((3-nitro-4-(((tetrahydro-2H-pyran-4-yl)methyl)amino)phenyl)sulfonyl)-2-((5aS,8aS)-5a,6,8,8a-tetrahydrofuro[3,4-b]pyrrolo[3′,2′:5,6]pyrido[3,2-e][1,4]oxazin-5(1H)-yl)benzamide]	0.608 nM	392 nM			
CC(C)Oc1ccccc1[C@@H]1CCCN1C1CC2(CCN(c3ccc(C(=O)NS(=O)(=O)c4ccc(NCC5CCOCC5)c([N+](=O)[O-])c4)c(N4c5cc6cc[nH]c6nc5O[C@H]5CCOC[C@@H]54)c3)CC2)C1 [Example 58, 4-(2-((S)-2-(2-isopropoxyphenyl)pyrrolidin-1-yl)-7-azaspiro[3.5]nonan-7-yl)-N-((3-nitro-4-(((tetrahydro-2H-pyran-4-yl)methyl)amino)phenyl)sulfonyl)-2-((5aS,9aS)-5a,8,9,9a-tetrahydro-6H-pyrano[4,3-b]pyrrolo[3′,2′:5,6]pyrido[3,2-e][1,4]oxazin-5(1H)-yl)benzamide]	0.324 nM	188 nM			
CC(C)Oc1ccccc1[C@@H]1CCCN1C1CC2(CCN(c3ccc(C(=O)NS(=O)(=O)c4ccc(NCC5CCOCC5)c([N+](=O)[O-])c4)c(N4c5cc6cc[nH]c6nc5O[C@@H]5CCOC[C@H]54)c3)CC2)C1 [Example 59, 4-(2-((S)-2-(2-isopropoxyphenyl)pyrrolidin-1-yl)-7-azaspiro[3.5]nonan-7-yl)-N-((3-nitro-4-(((tetrahydro-2H-pyran-4-yl)methyl)amino)phenyl)sulfonyl)-2-((5aR,9aR)-5a,8,9,9a-tetrahydro-6H-pyrano[4,3-b]pyrrolo[3′,2′:5,6]pyrido[3,2-e][1,4]oxazin-5(1H)-yl)benzamide]	0.101 nM	124 nM			
CC(C)c1cc(F)ccc1[C@@H]1CCCN1C1CC2(CCN(c3ccc(C(=O)NS(=O)(=O)c4ccc(NCC5CCOCC5)c([N+](=O)[O-])c4)c(N4c5cc6cc[nH]c6nc5O[C@@H]5COC[C@H]54)c3)CC2)C1 [Example 60, 2-[(11R,15S)-13,16-dioxa-2,4,10-triazatetracyclo[7.7.0.0^{3,7}.0^{11,15}]hexadeca-1(9),2,5,7-tetraen-10-yl]-4-{2-[(2S)-2-(4-fluoro-2-isopropylphenyl)pyrrolidin-1-yl]-7-azaspiro[3.5]nonan-7-yl}-N-{3-nitro-4-[(oxan-4-ylmethyl)amino]benzenesulfonyl}benzamide]	0.341 nM		62.4 nM		
Cc1ccccc1C1CC(C)(C)CN1C1CC2(CCN(c3ccc(C(=O)NS(=O)(=O)c4ccc(NCC5CCOCC5)c([N+](=O)[O-])c4)c(N4c5cc6cc[nH]c6nc5O[C@@H]5COC[C@H]54)c3)CC2)C1 (stereo partly drawn) [Example 61, 4-{2-[4,4-dimethyl-2-(2-methylphenyl)pyrrolidin-1-yl]-7-azaspiro[3.5]nonan-7-yl}-2-[(11R,15S)-13,16-dioxa-2,4,10-triazatetracyclo[7.7.0.0^{3,7}.0^{11,15}]hexadeca-1(9),2,5,7-tetraen. 10-yl]-N-{3-nitro-4-[(oxan-4-ylmethyl)amino]benzenesulfonyl}benzamide]	0.707 nM		130 nM		
CC(C)Oc1ccccc1[C@@H]1CCCN1C1CC2(CCN(c3ccc(C(=O)NS(=O)(=O)c4ccc(NCC5CCOCC5)c([N+](=O)[O-])c4)c(N4c5cc6cc[nH]c6nc5O[C@H]5COCC[C@@H]54)c3)CC2)C1 [Example 62, 4-(2-((S)-2-(2-isopropoxyphenyl)pyrrolidin-1-yl)-7-azaspiro[3.5]nonan-7-yl)-N-((3-nitro-4-(((tetrahydro-2H-pyran-4-yl)methyl)amino)phenyl)sulfonyl)-2-((5aS,9aR)-6,7,9,9a-tetrahydro. 1H-pyrano[3,4-b]pyrrolo[3′,2′:5,6]pyrido[3,2-e][1,4]oxazin-5(5aH)-yl)benzamide hydrochloride]	0.41 nM		121 nM		
CC(C)c1ccsc1[C@@H]1CCCN1C1CC2(CCN(c3ccc(C(=O)NS(=O)(=O)c4ccc(NCC5CCOCC5)c([N+](=O)[O-])c4)c(N4c5cc6cc[nH]c6nc5O[C@@H]5COC[C@H]54)c3)CC2)C1 [Example 63, 4-(2-((S)-2-(3-isopropylthiophen-2-yl)pyrrolidin-1-yl)-7-azaspiro[3.5]nonan-7-yl)-N-((3-nitro-4-(((tetrahydro-2H-pyran-4-yl)methyl)amino)phenyl)sulfonyl)-2-((5aR,8aS)-5a,6,8,8a-tetrahydrofuro[3,4-b]pyrrolo[3′,2′:5,6]pyrido[3,2-e][1,4]oxazin-5(1H)-yl)benzamide hydrochloride]	0.314 nM	49.6 nM			
CC(C)Oc1ccccc1[C@@H]1CCCN1C1CC2(CCN(c3ccc(C(=O)NS(=O)(=O)c4ccc(NCC5CCOCC5)c([N+](=O)[O-])c4)c(N4c5cc6cc[nH]c6nc5O[C@H]5COCC[C@H]54)c3)CC2)C1 [Example 64, 2-[(3R,8R)-2,5-dioxa-9,15,17-triazatetracyclo[8.7.0.0^{3,8}.0^{12,16}]heptadeca-1(10),11,13,16-tetraen-9-yl]-4-{2-[(2S)-2-(2-isopropoxyphenyl)pyrrolidin-1-yl]-7-azaspiro[3.5]nonan-7-yl}-N-{3-nitro-4-[(oxan-4-ylmethyl)amino]benzenesulfonyl}benzamide]	0.341 nM		62.4 nM		
Cc1ccccc1[C@@H]1COCCCN1C1CC2(CCN(c3ccc(C(=O)NS(=O)(=O)c4ccc(NCC5CCOCC5)c([N+](=O)[O-])c4)c(N4c5cc6cc[nH]c6nc5O[C@@H]5COC[C@H]54)c3)CC2)C1 [Example 65, N-((3-nitro-4-(((tetrahydro-2H-pyran-4-yl)methyl)amino)phenyl)sulfonyl)-2-((5aR,8aS)-5a,6,8,8a-tetrahydrofuro[3,4-b]pyrrolo[3′,2′:5,6]pyrido[3,2-e][1,4]oxazin-5(1H)-yl)-4-(2-((R)-3-(o-tolyl)-1,4-oxazepan-4-yl)-7-azaspiro[3.5]nonan-7-yl)benzamide]	0.425 nM	> 1000 nM			
Cc1ccccc1[C@H]1COCCCN1C1CC2(CCN(c3ccc(C(=O)NS(=O)(=O)c4ccc(NCC5CCOCC5)c([N+](=O)[O-])c4)c(N4c5cc6cc[nH]c6nc5O[C@@H]5COC[C@H]54)c3)CC2)C1 [Example 66, 2-[(11R,15S)-13,16-dioxa-2,4,10-triazatetracyclo[7.7.0.0^{3,7}.0^{11,15}]hexadeca-1(9),2,5,7-tetraen-10-yl]-4-{2-[(3S)-3-(2-methylphenyl)-1,4-oxazepan-4-yl]-7-azaspiro[3.5]nonan-7-yl}-N-{3-nitro-4-[(oxan-4-ylmethyl)amino]benzenesulfonyl}benzamide]	0.564 nM		296 nM		
CC(C)Oc1ccccc1[C@@H]1CCCN1C1CC2(CCN(c3ccc(C(=O)NS(=O)(=O)c4ccc(NCC5CCOCC5)c([N+](=O)[O-])c4)c(N4c5cc6cc[nH]c6nc5O[C@H]5COCC[C@@H]54)c3)CC2)C1 [Example 67, 2-[(3R,8S)-2,5-dioxa-9,15,17-triazatetracyclo[8.7.0.0^{3,8}.0^{12,16}]heptadeca-1(10),11,13,16-tetraen-9-yl]-4-{2-[(2S)-2-(2-isopropoxyphenyl)pyrrolidin-1-yl]-7-azaspiro[3.5]nonan-7-yl}-N-{3-nitro-4-[(oxan-4-ylmethyl)amino]benzenesulfonyl}benzamide hydrochloride]				0.229 nM	50.6 nM
Cc1ccccc1[C@@H]1CCCN1C1CC2(CCN(c3ccc(C(=O)NS(=O)(=O)c4ccc(NCC5CCOCC5)c([N+](=O)[O-])c4)c(N4C[C@H]5CCOC[C@@H]5Oc5nc6[nH]ccc6cc54)c3)CC2)C1 [Example 68, 2-[(3R,8R)-2,5-dioxa-10,16,18-triazatetracyclo[9.7.0.0^{3,8}.0^{13,17}]octadeca-1(11),12,14,17-tetraen-10-yl]-4-{2-[(2S)-2-(2-methylphenyl)pyrrolidin-1-yl]-7-azaspiro[3.5]nonan-7-yl}-N-{3-nitro-4-[(oxan-4-ylmethyl)amino]benzenesulfonyl}benzamide]	0.303 nM		40.7 nM		
